Source: US12161641B2, “Treatments and prevention of opioid neonatal abstinence syndrome” (Ohio State Innovation Foundation, priority 2016, dated 2024)

How the values were obtained:
[1] = Weight gain during 6 day morphine dosing schedule; format: in vivo, mice; details: increasing concomitant doses with morphine; 6 day dosing schedule
Method: Total jumps were counted over a period of 15 minutes starting immediately after the injection of naloxone to induce withdrawal. Two concentration ramping procedure were used for the morphine injections with commensurate ramping of 6β-naltrexol. Data are plotted using the lower of the two drug concentrations. Asterisks indicate a significant difference compared to morphine treated animals with no 6β-naltrexol; *p<0.05; **p<0.01. […] Bidirectional arrows indicate the time bin for each 6β-naltrexol dose where an equal number of jumps occur prior to and after that time bin. Note that this timepoint increases with increasing 6β-naltrexol. Asterisk indicates a significant effect of the 1/3000, 1/1000, and 1/200 doses of 6β-naltrexol compared to morphine-alone in the first three time bins. […] The mass of each mouse was determined before and after the 6 day morphine dosing schedule and the percent weight change was determined. Asterisk indicates significant difference from animals that received morphine but no (“0”) 6β-naltrexol (p<0.05). In FIG. 3A, the number in parentheses indicates the number of animals tested at each drug concentration. […]
Animals were injected with morphine alone or morphine mixed with increasing amounts of 6β-naltrexol. […] Withdrawal jumping was videotaped and jumps were scored in a 15 minute interval. […]

[2] = Drug levels in plasma, brain and liver during postnatal development; details: for Plasma levels: 45 minutes after single injection; for Brain / Liver / Plasma: single injection
Method: Drugs were dissolved in saline at concentrations between 10 and 20 mg/ml, and all dilutions were made in saline. Morphine was purchased from the Ohio State Medical Center pharmacy as a 15 mg/ml solution in saline. Animals were injected subcutaneously in the region around the right hind-quarters. […] After injection and variable survival times adult and pregnant mice were euthanized by cervical dislocation, and brain, liver and plasma were collected, quickly frozen on dry-ice and stored at −70° C. until processing After euthanizing the dam, embryos were collected into a large (150×15 mm) petri dish and kept on ice while maternal tissues were processed. All embryonic tissues were then dissected and collected in a cold room at 4° C. in order to facilitate and preserve tissue integrity during dissection, then stored at −70° C. […] Samples were later thawed, processed and analyzed via liquid chromatography-tandem mass spectrometry (LC-MS/MS) to quantify levels of drug. Detailed methods for tissue processing and LC-MS/MS analysis are located in the supplemental information.

[3] = adult mice; 10 minutes after injection; cited from earlier work

Oc1ccc2c3c1O[C@H]1[C@H](O)CC[C@@]4(O)[C@@H](C2)N(CC2CC2)CC[C@]314 [6β-naltrexol]
effect on inhibition of weight gain by morphine [1]: alleviated | Plasma levels ([2]; PD7): 3660+350 ng/ml | Brain:Plasma Kp ratio ([2]; PD7, survival time 45 min): 0.86 | Liver:Plasma Kp ratio ([2]; PD7, survival time 45 min): 4.3 | Brain ([2]; PD7, survival time 45 min): 3030 ± 340 ng/g | Liver ([2]; PD7, survival time 45 min): 15220 ± 1750 ng/g | Plasma ([2]; PD7, survival time 45 min): 3513 ng/mL | Brain:Plasma Kp ratio ([2]; PD14, survival time 45 min): 2 | Liver:Plasma Kp ratio ([2]; PD14, survival time 45 min): 3.6 | Brain ([2]; PD14, survival time 45 min): 2860 ± 800 ng/g | Liver ([2]; PD14, survival time 45 min): 5050 ± 1260 ng/g | Plasma ([2]; PD14, survival time 45 min): 1410 ± 370 ng/mL | Brain:Plasma Kp ratio ([2]; PD20, survival time 20 min): 0.33 | Liver:Plasma Kp ratio ([2]; PD20, survival time 20 min): 1.7 | Brain ([2]; PD20, survival time 20 min): 350 ± 20 ng/g | Liver ([2]; PD20, survival time 20 min): 1830 ± 70 ng/g | Plasma ([2]; PD20, survival time 20 min): 1070 ± 100 ng/mL | brain:plasma KP ratios ([2]; PD20 and older): 0.22-0.35 | Plasma levels ([2]; PD32): 170+30 ng/ml | Brain:Plasma Kp ratio ([2]; PD32, survival time 20 min): 0.22 | Liver:Plasma Kp ratio ([2]; PD32, survival time 20 min): 1.3 | Brain ([2]; PD32, survival time 20 min): 260 ± 80 ng/g | Liver ([2]; PD32, survival time 20 min): 1510 ± 640 ng/g | Plasma ([2]; PD32, survival time 20 min): 1160 ± 730 ng/mL | Brain:Plasma Kp ratio ([2]; PD50, survival time 45 min): 0.35 | Liver:Plasma Kp ratio ([2]; PD50, survival time 45 min): 1.9 | Brain ([2]; PD50, survival time 45 min): 150 ± 10 ng/g | Liver ([2]; PD50, survival time 45 min): 820 ± 80 ng/g | Plasma ([2]; PD50, survival time 45 min): 430 ± 40 ng/mL | Plasma levels ([2]; adults): 930+220 ng/ml | liver:plasma KP ratios ([2]; all ages): 1.3-4.2 | brain levels lower than plasma levels [3]: ~10 fold
